This is an account of results in patent publication US9718835B2 (China Medical University Hospital, priority 2013, dated 2017).

Structures are written as SMILES.

The test system of series [1] is A549 (Lung cancer). Kind of series: cells. It counts as cell-based, human. Conditions: Table 6; read-out: In vitro cytotoxicity A549 (Lung cancer).
Series [2] concerns ATM. The series is described as follows: Western blot analysis of ATM phosphorylation (DNA damage response). It counts as cell-based, human. The conditions noted are these: after 0.5 h treatment. As for the experimental part: Activation of ATM kinase was confirmed by detecting the phosphorylation of downstream effectors, Chk1, Chk2, and histone H2AX.
(§1) Cells were harvested in PBS containing proteinase inhibitors and phosphatase inhibitors, and sonicated. Whole cell lysates were separated by SDS-PAGE and transferred to Immobilon P membrane (EMD Millipore). The membrane was incubated with primary antibody followed by labeling with horseradish peroxidase (HRP)-conjugated secondary antibody (EMD Millipore). Chemilluminence substrate kit (EMD Millipore) was used for detection of membrane-bound HRP, and visualized by the Luminsence image analyzer, LAS4000 (Fuji Photo Film Co., Japan).
Antibodies to caspase-3, caspase-8, caspase-9, PARP, phospho-ATM (Ser1981), ATM, phospho-ATR (Ser428), phospho-Chk1 (Ser345), phospho-Chk2 (Thr68), Chk2, phospho-H2AX (Ser139), and phospho-p53 (Ser15) were purchased from Cell Signaling Technology. Antibodies against ATM, ATR, Chk1, and PUMA were from Santa Cruz Biotechnology. Antibodies against Topo I, Topo IIα, Topo IIβ, p53, FADD, BAX, Bcl-xL, and Bcl-2 were from BD Biosciences. Antibody to β-actin was purchased from EMD Millipore.
(Immunoblotting shows a protein as a band on a membrane.)

Series [3] relates to A-549 (lung carcinoma). Kind of series: Sulforhodamine B cytotoxicity assay, A-549. The class given is cell-based, human. Conditions: Table 1; 72 h; average ± SD. The text has this: The human tumor cell lines used in this manuscript were A-549 (lung carcinoma), MDA-MB-231 (triple-negative breast cancer), DU-145 (hormone-insensitive prostate cancer), KB (originally isolated from epidermoid carcinoma of the nasopharynx), KBvin (vincristine-resistant KB subline), and HCT116 (colorectal adenocarcinoma). These cell lines were obtained from the Lineberger Comprehensive Cancer Center (UNC-CH) or from ATCC (Manassas, Va.), except KBvin, which was a generous gift of Professor Y.-C. Cheng (Yale University). All cell lines were maintained and assayed in RPMI-1640 medium containing 2 mM L-glutamine and 25 mM HEPES (HyClone), supplemented with 10% heat-inactivated fetal bovine serum (HyClone), 100 μg/mL streptomycin, 100 IU/mL penicillin, and 0.25 μg/mL amphotericin B (Cellgro) in a humidified atmosphere containing 5% CO2 in air. […] The 4-6×10^3 cells/well were cultured for 72 h with various concentrations of test compounds in 96-well plate at 37° C. […] Each assay was performed in triplicate with duplicated samples.
For orientation: The SRB assay estimates cell density from bound dye.

Series [4] addresses T1, Topo I (Homo sapiens, UniProt P11387).
T1 sequence (P11387 1-765): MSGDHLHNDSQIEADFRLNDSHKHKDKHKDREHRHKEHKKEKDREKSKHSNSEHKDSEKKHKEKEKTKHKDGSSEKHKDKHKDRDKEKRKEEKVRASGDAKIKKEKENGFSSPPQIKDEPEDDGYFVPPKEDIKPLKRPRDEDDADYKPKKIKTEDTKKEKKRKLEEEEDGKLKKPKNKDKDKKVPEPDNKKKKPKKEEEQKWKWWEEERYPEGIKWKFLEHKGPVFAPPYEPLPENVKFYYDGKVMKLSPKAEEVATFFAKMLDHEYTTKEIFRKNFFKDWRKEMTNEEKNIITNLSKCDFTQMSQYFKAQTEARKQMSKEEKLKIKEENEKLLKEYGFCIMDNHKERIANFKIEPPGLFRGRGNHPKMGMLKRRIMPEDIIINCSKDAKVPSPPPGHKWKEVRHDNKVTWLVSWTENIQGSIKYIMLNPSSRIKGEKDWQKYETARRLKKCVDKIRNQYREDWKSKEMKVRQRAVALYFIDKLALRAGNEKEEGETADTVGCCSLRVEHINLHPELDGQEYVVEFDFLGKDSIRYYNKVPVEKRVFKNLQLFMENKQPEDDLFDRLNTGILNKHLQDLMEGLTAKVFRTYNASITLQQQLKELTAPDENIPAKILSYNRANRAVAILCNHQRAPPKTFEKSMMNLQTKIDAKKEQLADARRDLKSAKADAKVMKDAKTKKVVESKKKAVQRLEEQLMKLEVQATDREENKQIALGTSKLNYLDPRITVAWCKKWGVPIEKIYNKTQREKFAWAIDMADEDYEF
Kind of series: Western blot analysis of Topo I expression. The class given is cell-based. Details: endogenous in cells; host or cells: A-549. The conditions noted are these: after 8 h treatment.
From the text: (§2) First, we determined the effect of 9a on cell cycle distribution using flow cytometry analysis. […] Because it has been shown that 1-Topo I-DNA covalent complexes enhance the transcription-dependent degradation of Topo I via a 26S proteasome pathway,^32 the effects of 9a on the expression levels of Topo I and Topo II were investigated. […] Compound 9a acts directly on Topo I and results in the accumulation of covalent Topo I-DNA complexes followed by proteasomal Topo I degradation, which is the same effect as 1 and contributes to 9a's cytotoxicity.
as §1
Antibodies to caspase-3, caspase-8, caspase-9, PARP, phospho-ATM (Ser1981), ATM, phospho-ATR (Ser428), phospho-Chk1 (Ser345), phospho-Chk2 (Thr68), Chk2, phospho-H2AX (Ser139), and phospho-p53 (Ser15) were purchased from Cell Signaling Technology. […]

In series [5] the test system is A-549 cells. Kind of series: Cell cycle analysis by flow cytometry. It counts as cell-based, human. The conditions noted are these: A-549, 24 h treatment.
From the text: as §2
A-549 cells were fixed with ice-cold 70% EtOH followed by propidium iodide staining Samples were analyzed by a flow cytometer for cell cycle determination. Population of each cell cycle phase was calculated based on the ploidy (<2N as sub-G1; 2N as G1; between 2N and 4N as S; 4N as G2/M), and evaluated statistically by Student's t-test (P<0.01).
For orientation: Flow cytometry measures light scatter and fluorescence of single cells or particles in a stream.

In series [6] the target is T2, recombinant human Topoisomerase I (Homo sapiens, UniProt P11387).
T2 construct: purchased TopoGEN
T2 sequence (P11387 1-765): T1 sequence (P11387 1-765)
The series is described as follows: Topoisomerase I activity assay in a cell-free system. It counts as biochemical. Conditions: purified recombinant human Topo I. As for the experimental part: Inhibition of Topo I activity by 9a in a cell-free system. A 1-delivative with an esterified 20-hydroxy group is expected to be activated by digestion with carboxylesterases. […] We authenticated the inhibitory effect of 9a against Topo I in a dose-dependent manner Thus, we confirmed that 9a is a new class of Topo I inhibitor.
One unit of recombinant human Topoisomerase I enzyme (TopoGEN) was pre-incubated for 20 min at 37° C. with vehicle, 9a, 1, 3, or SN-38 in a final volume of 20 μL reaction buffer (10 mM Tris-HCl, pH 7.9, 1 mM EDTA, 150 mM NaCl, 0.1% BSA, 0.1 mM spermidine, 5% glycerol) was then incubated with 250 ng of supercoiled plasmid DNA for 20 min. The supercoiled, relaxed, or nicked DNA was separated by 1% agarose gel in 1×TAE (Tris-Acetate-EDTA) buffer. Ethidium bromide stained agarose gel was photographed using Gel Doc XR (Bio-Rad).

Regarding `CC[C@@]1(OC(=O)CNC(Cc2ccc(OC)cc2)=NS(=O)(=O)c2ccc(C)cc2)C(=O)OCc2c1cc1n(c2=O)Cc2cc3ccccc3nc2-1` [Compound 9a], the results for the IC50 in series [1] and in series [3] were 0.0803 ± 0.00613 µM and 0.031 ± 0.0035 µM, respectively. For the same compound, in series [2], the “ATM phosphorylation at Ser1981” value was “underwent phosphorylation at Ser1981 residue”. Further, the “protein levels of Topo I” value in series [4] was “significantly inhibited protein levels of Topo I”. Moreover, in series [5], the cell cycle distribution entry is “increased cell populations in S and sub-G1 phases”. The “Inhibition of Topo I activity (relaxation/nicking of supercoiled plasmid DNA)” value in series [6] is “inhibited Topo I activity”.
